According to the Kinase Knowledgebase extract (Sharma et al. 2016):

Molecular target: CDK2 (human) (UniProt P24941)
Experiment: Enzyme Assay

Compound	Ki [nM]
O=c1[nH][nH]c2cc(Sc3nc(Nc4cc(C5CC5)[nH]n4)c4ccccc4n3)ccc12	< 1000
O=C(CC(=O)Nc1nccnn1)Nc1ccc2c(=O)[nH][nH]c2c1	< 1000
Cc1cc(Nc2cc(N3CCOCC3)nc(OCc3ccc4c(=O)[nH][nH]c4c3)n2)n[nH]1	< 1000
Cc1cc(Nc2cc(-c3ccccc3)[nH]n2)nc(Nc2ccc3c(=O)[nH][nH]c3c2)n1	< 1000
Cc1cnc(NC2CCCC(Oc3ccc4c(=O)[nH][nH]c4c3)C2)s1 (configuration not stated)	< 1000
O=C1CCCN(c2cc(-c3cc4c(=O)[nH][nH]c4cc3Cl)nc(Nc3n[nH]c4ccc(F)cc34)n2)C1	< 1000
O=c1[nH][nH]c2cc(Cl)c(-c3nc(Nc4n[nH]c5ccccc45)nc(-c4cccnc4)n3)cc12	< 1000
Cc1cnc(NC(=O)CCCc2ccc3c(=O)[nH][nH]c3c2)s1	< 1000
CC(C)c1cc(Nc2nc(Nc3ccc4c(=O)[nH][nH]c4c3)nc3ccccc23)n[nH]1	< 1000
O=C(CCCc1ccc2c(=O)[nH][nH]c2c1)Nc1nccnn1	< 1000
O=c1[nH][nH]c2ccc(-c3nc(Nc4n[nH]c5cc(=O)n(-c6ccc(Oc7ccccc7)cc6)nc45)c4ccccc4n3)cc12	< 1000
O=c1[nH][nH]c2ccc(OCc3cc4ccccc4c(Nc4cc(C5CC5)[nH]n4)n3)cc12	< 1000
O=c1[nH][nH]c2ccc(-c3nc(Nc4n[nH]c5ccccc45)c4cccnc4n3)c(C(F)(F)F)c12	< 1000
COCc1cc(Nc2nc(Nc3ccc4c(=O)[nH][nH]c4c3)nc3ccccc23)n[nH]1	< 1000
Cc1cnc(NCCC(Cc2ccccc2)Oc2ccc3c(=O)[nH][nH]c3c2)s1 (configuration not stated)	< 1000
CN(C)CCNC(=O)c1cc(Nc2cc(C3CC3)[nH]n2)nc(Sc2ccc3c(=O)[nH][nH]c3c2)n1	< 1000
O=c1[nH][nH]c2cc(Nc3nc(Nc4cc(-c5ccccc5)[nH]n4)cc(-c4cccc([N+](=O)[O-])c4)n3)ccc12	< 1000
O=c1[nH][nH]c2cc(OCC3CCCC3Nc3cc(C4CC4)[nH]n3)ccc12 (configuration not stated)	< 1000
Cc1cc(Nc2nc(Nc3ccc4c(=O)[nH][nH]c4c3)nc3ccccc23)n[nH]1	< 1000

Compound	Ki [nM]
O=c1[nH][nH]c2cc(SCCCNc3nccnn3)ccc12	< 1000
Cc1cc(Nc2nc(Cc3ccc4c(=O)[nH][nH]c4c3)nc3c2CCN(Cc2ccccc2)C3)n[nH]1	< 1000
Cc1cnc(NOCCOc2ccc3c(=O)[nH][nH]c3c2)s1	< 1000
O=C(CCSc1ccc2c(=O)[nH][nH]c2c1)Nc1cc(C2CC2)[nH]n1	< 1000
Cc1nc(Nc2ccc3c(=O)[nH][nH]c3c2)nc(Nc2cc(C3CC3)[nH]n2)n1	< 1000
CC(C)c1cc2[nH][nH]c(=O)c2cc1-c1nc(Nc2n[nH]c3ccccc23)c2ccccc2n1	< 1000
O=c1[nH][nH]c2ccc(-c3cc(Nc4n[nH]c5ccccc45)nnc3NCCN3CCCCC3)c(C(F)(F)F)c12	< 1000
O=c1[nH][nH]c2cc(OCC3CCCC3Nc3ccccn3)ccc12 (configuration not stated)	< 1000
CNC(=O)c1cc(Nc2cc(C)[nH]n2)nc(Sc2ccc3c(=O)[nH][nH]c3c2)n1	< 1000
CN1CCN(C(=O)c2cc(Nc3nc(-c4ccc5[nH][nH]c(=O)c5c4)nc4ccccc34)n[nH]2)CC1	< 1000
O=c1[nH][nH]c2cc(CCCCNc3nccnn3)ccc12	< 1000
O=c1[nH][nH]c2cc(Sc3nc(Nc4cc(C5CC5)[nH]n4)cc(-c4ccccc4)n3)ccc12	< 1000
Cc1cc(Nc2cc(-c3ccccc3C)nc(Sc3ccc4c(=O)[nH][nH]c4c3)n2)n[nH]1	< 1000
CN(C)CCOCc1cc(Nc2n[nH]c3ccccc23)nc(Sc2ccc3c(=O)[nH][nH]c3c2)n1	< 1000
Cc1nc(Nc2nc(-c3ccc4[nH][nH]c(=O)c4c3C(N)=O)nc3ccccc23)n[nH]1	< 1000
Cn1cnc(NC2CCCC(c3ccc4[nH][nH]c(=O)c4c3)C2)c1 (configuration not stated)	< 1000
O=c1[nH][nH]c2cc(C(F)(F)F)c(-c3nc(Nc4n[nH]c5c(F)cc(F)cc45)c4cnsc4n3)cc12	< 1000
O=c1[nH][nH]c2ccc(-c3nc(Nc4n[nH]c5c(F)cccc45)c4ccncc4n3)c(Cl)c12	< 1000
